This assay addresses T1, AR (Homo sapiens, UniProt P10275).
T1 construct: endogenous in cells; host or cells: VCaP cells
T1 sequence (P10275 1-920): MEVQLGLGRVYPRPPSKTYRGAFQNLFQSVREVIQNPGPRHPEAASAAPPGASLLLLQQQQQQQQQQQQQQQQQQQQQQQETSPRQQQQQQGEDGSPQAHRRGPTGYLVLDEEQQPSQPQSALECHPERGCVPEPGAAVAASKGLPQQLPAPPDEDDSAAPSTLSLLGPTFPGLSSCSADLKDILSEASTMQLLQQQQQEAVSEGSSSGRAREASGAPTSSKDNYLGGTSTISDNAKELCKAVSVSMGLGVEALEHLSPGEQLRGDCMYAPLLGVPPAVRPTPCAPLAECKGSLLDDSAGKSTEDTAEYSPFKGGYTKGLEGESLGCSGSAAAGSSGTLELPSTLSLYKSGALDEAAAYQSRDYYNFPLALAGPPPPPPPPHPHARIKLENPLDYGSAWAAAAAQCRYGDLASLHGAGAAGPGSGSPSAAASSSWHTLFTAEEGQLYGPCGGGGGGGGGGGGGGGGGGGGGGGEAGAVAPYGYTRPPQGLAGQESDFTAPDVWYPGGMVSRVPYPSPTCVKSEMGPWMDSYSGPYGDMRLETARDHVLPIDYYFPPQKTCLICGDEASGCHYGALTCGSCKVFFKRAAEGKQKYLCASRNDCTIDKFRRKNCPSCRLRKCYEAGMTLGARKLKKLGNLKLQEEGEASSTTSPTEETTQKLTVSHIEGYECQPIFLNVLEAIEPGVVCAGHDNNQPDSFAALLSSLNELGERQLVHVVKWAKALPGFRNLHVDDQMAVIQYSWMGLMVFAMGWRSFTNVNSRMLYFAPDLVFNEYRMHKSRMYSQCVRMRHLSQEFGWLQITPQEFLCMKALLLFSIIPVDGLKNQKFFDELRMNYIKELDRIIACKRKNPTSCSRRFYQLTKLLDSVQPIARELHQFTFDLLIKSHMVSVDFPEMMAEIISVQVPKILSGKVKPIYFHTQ
The experiment in a line: VCAP AR Degradation Assay. In kind it is cell-based. The conditions noted are these: for Y (AR degradation efficiency, % of DMSO control): class symbols *; for DC50: class symbols A-C, read-out: DC50. Put shortly:
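Compounds were plated as 10-point 1:3 series reaching 5 μM final, then VCaP cells were seeded onto them and incubated 24 h at 37 °C. Cells were lysed cold, and total AR was measured by sandwich ELISA relative to 0.1% DMSO wells.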

A word on the DC50: it is the concentration giving 50% degradation.

As to `CCc1cc(N2C(=S)N(c3ccc(C#N)c(C(F)(F)F)c3)C(=O)C23CCC3)ccc1OCCN1CCN(CC(=O)Nc2cc(Cl)cc(NC3CCC(=O)NC3=O)c2)[C@H](C)C1` (stereo partly drawn) [Example 103, N-(3-chloro-5-(2,6-dioxopiperidin-3-ylamino)phenyl)-2-((R)-4-(2-(4-(7-(4-cyano-3-(trifluoromethyl)phenyl)-8-oxo-6-thioxo-5,7-diazaspiro[3.4]octan-5-yl)-2-ethylphenoxy)ethyl)-2-methylpiperazin-1-yl)acetamide], the “Y (AR degradation efficiency, % of DMSO control)” value is listed as “* (0<Y<=25%)” and the DC50 was under 100 nM.
As for `CCc1cc(N2C(=S)N(c3ccc(C#N)c(C(F)(F)F)c3)C(=O)C23CCC3)ccc1OCCN1CCN(CC(=O)Nc2cc(F)cc(NC3CCC(=O)NC3=O)c2)[C@H](C)C1` (stereo partly drawn) [Example 104, 2-((R)-4-(2-(4-(7-(4-cyano-3-(trifluoromethyl)phenyl)-8-oxo-6-thioxo-5,7-diazaspiro[3.4]octan-5-yl)-2-ethylphenoxy)ethyl)-2-methylpiperazin-1-yl)-N-(3-(2,6-dioxopiperidin-3-ylamino)-5-fluorophenyl)acetamide], the “Y (AR degradation efficiency, % of DMSO control)” value is “* (0<Y<=25%)” and the DC50 is under 100 nM.
`CCc1cc(N2C(=S)N(c3ccc(C#N)c(C(F)(F)F)c3)C(=O)C23CCC3)ccc1OCCN1CCN(CC(=O)Nc2cccc(NC3CCC(=O)NC3=O)c2)[C@H](C)C1` (stereo partly drawn) [Example 105, 2-((R)-4-(2-(4-(7-(4-cyano-3-(trifluoromethyl)phenyl)-8-oxo-6-thioxo-5,7-diazaspiro[3.4]octan-5-yl)-2-ethylphenoxy)ethyl)-2-methylpiperazin-1-yl)-N-(3-(2,6-dioxopiperidin-3-ylamino)phenyl)acetamide]: the “Y (AR degradation efficiency, % of DMSO control)” value was “* (0<Y<=25%)” and the DC50 is under 100 nM.
The matching figures for `CCc1cc(N2C(=S)N(c3cnc(C#N)c(C(F)(F)F)c3)C(=O)C23CCC3)ccc1OCCN1CCN(CC(=O)Nc2cc(Cl)cc(NC3CCC(=O)NC3=O)c2)[C@H](C)C1` (stereo partly drawn) [Example 106, N-(3-chloro-5-(2,6-dioxopiperidin-3-ylamino)phenyl)-2-((R)-4-(2-(4-(7-(6-cyano-5-(trifluoromethyl)pyridin-3-yl)-8-oxo-6-thioxo-5,7-diazaspiro[3.4]octan-5-yl)-2-ethylphenoxy)ethyl)-2-methylpiperazin-1-yl)acetamide]: “* (0<Y<=25%)” and under 100 nM.
The matching figures for `CCc1cc(N2C(=S)N(c3cnc(C#N)c(C(F)(F)F)c3)C(=O)C23CCC3)ccc1OCCN1CCN(CC(=O)Nc2cc(F)cc(NC3CCC(=O)NC3=O)c2)[C@H](C)C1` (stereo partly drawn) [Example 107, 2-((R)-4-(2-(4-(7-(6-cyano-5-(trifluoromethyl)pyridin-3-yl)-8-oxo-6-thioxo-5,7-diazaspiro[3.4]octan-5-yl)-2-ethylphenoxy)ethyl)-2-methylpiperazin-1-yl)-N-(3-(2,6-dioxopiperidin-3-ylamino)-5-fluorophenyl)acetamide]: “* (0<Y<=25%)” and under 100 nM.
The matching figures for `CCc1cc(N2C(=S)N(c3cnc(C#N)c(C(F)(F)F)c3)C(=O)C23CCC3)ccc1OCCN1CCN(CC(=O)Nc2cccc(NC3CCC(=O)NC3=O)c2)[C@H](C)C1` (stereo partly drawn) [Example 108, 2-((R)-4-(2-(4-(7-(6-cyano-5-(trifluoromethyl)pyridin-3-yl)-8-oxo-6-thioxo-5,7-diazaspiro[3.4]octan-5-yl)-2-ethylphenoxy)ethyl)-2-methylpiperazin-1-yl)-N-(3-(2,6-dioxopiperidin-3-ylamino)phenyl)acetamide]: “* (0<Y<=25%)” and under 100 nM.
As for `CCc1cc(N2C(=S)N(c3ccc(C#N)c(C(F)(F)F)c3)C(=O)C2(C)C)ccc1OCCN1CCN(CC(=O)Nc2cc(F)cc(NC3CCC(=O)NC3=O)c2)C2(CC2)C1` (stereo not shown) [Example 109, 2-(7-(2-(4-(3-(4-cyano-3-(trifluoromethyl)phenyl)-5,5-dimethyl-4-oxo-2-thioxoimidazolidin-1-yl)-2-ethylphenoxy)ethyl)-4,7-diazaspiro[2.5]octan-4-yl)-N-(3-(2,6-dioxopiperidin-3-ylamino)-5-fluorophenyl)acetamide], the “Y (AR degradation efficiency, % of DMSO control)” value is listed as “* (0<Y<=25%)” and the DC50 is under 100 nM.
The matching figures for `CCc1cc(N2C(=S)N(c3cnc(C#N)c(C(F)(F)F)c3)C(=O)C2(C)C)ccc1OCCN1CCN(CC(=O)Nc2cc(F)cc(NC3CCC(=O)NC3=O)c2)C2(CC2)C1` (stereo not shown) [Example 110, 2-(7-(2-(4-(3-(6-cyano-5-(trifluoromethyl)pyridin-3-yl)-5,5-dimethyl-4-oxo-2-thioxoimidazolidin-1-yl)-2-ethylphenoxy)ethyl)-4,7-diazaspiro[2.5]octan-4-yl)-N-(3-(2,6-dioxopiperidin-3-ylamino)-5-fluorophenyl)acetamide]: “* (0<Y<=25%)” and under 100 nM.
With `CCc1cc(N2C(=S)N(c3ccc(C#N)c(C(F)(F)F)c3)C(=O)C2(C)C)ccc1OCCN1CCN(CC(=O)Nc2cccc(N[C@H]3CCC(=O)NC3=O)c2)[C@H](C)C1` [Example 111, 2-((R)-4-(2-(4-(3-(4-cyano-3-(trifluoromethyl)phenyl)-5,5-dimethyl-4-oxo-2-thioxoimidazolidin-1-yl)-2-ethylphenoxy)ethyl)-2-methylpiperazin-1-yl)-N-(3-((S)-2,6-dioxopiperidin-3-ylamino)phenyl)acetamide], the “Y (AR degradation efficiency, % of DMSO control)” value is listed as “* (0<Y<=25%)” and the DC50 is under 100 nM.
The matching figures for `CCc1cc(N2C(=S)N(c3ccc(C#N)c(C(F)(F)F)c3)C(=O)C2(C)C)ccc1OCCN1CCN(CC(=O)Nc2cccc(N[C@@H]3CCC(=O)NC3=O)c2)[C@H](C)C1` [Example 112, 2-((R)-4-(2-(4-(3-(4-cyano-3-(trifluoromethyl)phenyl)-5,5-dimethyl-4-oxo-2-thioxoimidazolidin-1-yl)-2-ethylphenoxy)ethyl)-2-methylpiperazin-1-yl)-N-(3-((R)-2,6-dioxopiperidin-3-ylamino)phenyl)acetamide]: “* (0<Y<=25%)” and under 100 nM.
On to `CCc1cc(N2C(=S)N(c3cnc(C#N)c(C(F)(F)F)c3)C(=O)C2(C)C)ccc1OCCN1C[C@@H]2C[C@H]1CN2CC(=O)Nc1cc(Cl)cc(NC2CCC(=O)NC2=O)c1` (stereo partly drawn) [Example 115, N-(3-chloro-5-(2,6-dioxopiperidin-3-ylamino)phenyl)-2-((1S,4S)-5-(2-(4-(3-(6-cyano-5-(trifluoromethyl)pyridin-3-yl)-5,5-dimethyl-4-oxo-2-thioxoimidazolidin-1-yl)-2-ethylphenoxy)ethyl)-2,5-diazabicyclo[2.2.1]heptan-2-yl)acetamide], for which the “Y (AR degradation efficiency, % of DMSO control)” value is recorded as “** (25%<Y<=35%)” and the DC50 was 100 to 500 nM.
As to `CCc1cc(N2C(=S)N(c3cnc(C#N)c(C(F)(F)F)c3)C(=O)C2(C)C)ccc1OCCN1CCN([C@@H](C)C(=O)Nc2cc(F)cc(NC3CCC(=O)NC3=O)c2)CC1` (stereo partly drawn) [Example 116, (2S)-2-(4-(2-(4-(3-(6-cyano-5-(trifluoromethyl)pyridin-3-yl)-5,5-dimethyl-4-oxo-2-thioxoimidazolidin-1-yl)-2-ethylphenoxy)ethyl)piperazin-1-yl)-N-(3-(2,6-dioxopiperidin-3-ylamino)-5-fluorophenyl)propanamide], the “Y (AR degradation efficiency, % of DMSO control)” value was “* (0<Y<=25%)” and the 50% degradation concentration (DC50) was under 100 nM.
The matching figures for `CCc1cc(N2C(=S)N(c3cnc(C#N)c(C(F)(F)F)c3)C(=O)C2(C)C)ccc1OCCN1CCN([C@H](C)C(=O)Nc2cc(F)cc(NC3CCC(=O)NC3=O)c2)CC1` (stereo partly drawn) [Example 117, (2R)-2-(4-(2-(4-(3-(6-cyano-5-(trifluoromethyl)pyridin-3-yl)-5,5-dimethyl-4-oxo-2-thioxoimidazolidin-1-yl)-2-ethylphenoxy)ethyl)piperazin-1-yl)-N-(3-(2,6-dioxopiperidin-3-ylamino)-5-fluorophenyl)propanamide]: “* (0<Y<=25%)” and under 100 nM.
`CCc1cc(N2C(=S)N(c3cnc(C#N)c(C(F)(F)F)c3)C(=O)C2(C)C)ccc1OCCN1CCN([C@@H](C)C(=O)Nc2cccc(NC3CCC(=O)NC3=O)c2)CC1` (stereo partly drawn) [Example 118, (2S)-2-(4-(2-(4-(3-(6-cyano-5-(trifluoromethyl)pyridin-3-yl)-5,5-dimethyl-4-oxo-2-thioxoimidazolidin-1-yl)-2-ethylphenoxy)ethyl)piperazin-1-yl)-N-(3-(2,6-dioxopiperidin-3-ylamino)phenyl)propanamide]: the “Y (AR degradation efficiency, % of DMSO control)” value is “* (0<Y<=25%)” and the DC50 is under 100 nM.

(Values after patent publication US12404241B2 (Celgene Corporation, priority 2018, dated 2025).)
